Data: patent publication US20160222014A1, “COMPOUNDS FOR REGULATING FAK AND/OR SRC PATHWAYS” (ASANA BIOSCIENCES, LLC, priority 2013, published 2016)

Assays:
Format in all cases: biochemical
[1] = biological target: T1, Recombinant Src enzyme (Homo sapiens, UniProt P12931); experiment: Src HTRF assay
T1 construct: purchased Millipore 14-326; host or cells: Sf21 insect cells
Description: Enzyme assay buffer, supplements, and compounds were prepared as described in the FAK HTRF assay.
Recombinant Src enzyme expressed in Sf21 insect cells was obtained (Millipore, Cat No. 14-326, Lot # D8CN006U-K). A 35 μM stock was used at a final concentration of 5 nM in the assay.
Tyk2 synthetic peptide-Biotinylated-N-terminal tag-[…]
A custom made substrate, a Tyk2 synthetic peptide, biotinylated with an N-terminal tag was obtained (Biopeptide and Sigma, Cat. No. 14918001 VC80021). A 100 μM stock was used at a final concentration of 0.5 μM in the assay.
A 10 mM stock in 100 μL enzyme assay buffer pH7.4 was prepared freshly and used at a final concentration of 10 μM in the assay.
Dasatinib (Bristol-Myers Squibb)
The assay procedure was the same as discussed above.

[2] = biological target: T2, AURKB (Aurora B) enzyme (Homo sapiens, UniProt Q96GD4); experiment: Aurora B HTRF assay; details: read-out: AuroraB IC50
T2 construct: purchased Invitrogen PVR 130
Description: AURKB (Aurora B) enzyme was obtained (Invitrogen, Cat No. PVR 130, Lot No. 857013J). A 8.64 μM stock was used at a final concentration 5 nM in the assay.
Lance@Ultera Ulight-PLK (Ser137) peptide substrate
Peptide substrate was obtained from Perkin Elmer (Lot#1629793, TRF0110-M). A 5 μM stock was used at a final concentration of 50 nM in the assay.
10 mM stock prepared freshly as above, used at a final concentration of 30 μM in assay.
The plate was covered with aluminum foil, put on a shaker and incubated 1 h at rt.
Reference: Pfizer aurora inhibitor PF-03814735 was procured from Selleckchem: Cat# S2725
Using stock Lance detection buffer, 1× Lance detection buffer was prepared. • 1. 10× lance detection buffer was diluted to 1×, mixed well and 100 μL was removed, and was used to substitute with antibody and EDTA (for a total of 2200 μL). • 2. 88 μL of […] EDTA was added from 500 mM stock. • 3. 14 μL Europium labeled antibody (LANCE@ Ultra EU-Anti-P-PLK(Ser 137), TRF0203-D, Lot No. 1630351, Perkin Elmer) was added from 625 nM stock; required concentration was 2 nM in the assay. • 4. The buffer well was mixed and 20 μL was transferred to the each well in the assay plate. • 5. The solutions were incubated for 1 h at rt. • 6. The plate was read using MET-HTRF® protocol using Pherastar equipment.

[3] = biological target: T3, recombinant human FAK1 (Homo sapiens, UniProt Q05397); experiment: FAK1 HTRF assay
T3 construct: fused on or other part: N-terminal 6xHis tag
Summary of the method: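 IC50 values derive from HTRF % inhibition (ratio 665/620 nm, Eu–anti-phosphotyrosine 0.1 nM, SA-APC 12 nM). The kinase step ran 45 min at room temperature, pairing 10 nM His-FAK1(692–end) from baculovirus with 0.5 μM gastrin Tyr87 biotin-peptide and a reagent at 10 μM final, pH 7.4. Compound dilutions began at 10 μM.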

T2 sequence (Q96GD4 whole entry): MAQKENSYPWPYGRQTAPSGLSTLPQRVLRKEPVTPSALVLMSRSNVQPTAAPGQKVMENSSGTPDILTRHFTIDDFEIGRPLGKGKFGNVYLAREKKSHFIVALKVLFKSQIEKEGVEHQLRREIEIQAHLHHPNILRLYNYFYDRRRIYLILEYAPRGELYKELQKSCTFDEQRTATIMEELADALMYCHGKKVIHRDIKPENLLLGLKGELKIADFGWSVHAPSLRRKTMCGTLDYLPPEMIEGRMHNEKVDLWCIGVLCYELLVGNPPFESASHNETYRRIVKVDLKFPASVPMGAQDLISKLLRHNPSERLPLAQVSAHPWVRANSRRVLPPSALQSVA
T3 sequence (Q05397 422-680 limits assumed): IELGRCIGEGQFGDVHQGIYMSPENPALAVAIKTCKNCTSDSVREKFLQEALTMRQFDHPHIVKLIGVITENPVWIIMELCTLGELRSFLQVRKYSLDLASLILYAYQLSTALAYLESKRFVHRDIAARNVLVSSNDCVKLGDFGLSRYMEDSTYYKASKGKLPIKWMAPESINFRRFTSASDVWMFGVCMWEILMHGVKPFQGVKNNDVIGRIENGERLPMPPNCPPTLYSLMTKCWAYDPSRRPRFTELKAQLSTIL
T1 sequence (P12931 whole entry): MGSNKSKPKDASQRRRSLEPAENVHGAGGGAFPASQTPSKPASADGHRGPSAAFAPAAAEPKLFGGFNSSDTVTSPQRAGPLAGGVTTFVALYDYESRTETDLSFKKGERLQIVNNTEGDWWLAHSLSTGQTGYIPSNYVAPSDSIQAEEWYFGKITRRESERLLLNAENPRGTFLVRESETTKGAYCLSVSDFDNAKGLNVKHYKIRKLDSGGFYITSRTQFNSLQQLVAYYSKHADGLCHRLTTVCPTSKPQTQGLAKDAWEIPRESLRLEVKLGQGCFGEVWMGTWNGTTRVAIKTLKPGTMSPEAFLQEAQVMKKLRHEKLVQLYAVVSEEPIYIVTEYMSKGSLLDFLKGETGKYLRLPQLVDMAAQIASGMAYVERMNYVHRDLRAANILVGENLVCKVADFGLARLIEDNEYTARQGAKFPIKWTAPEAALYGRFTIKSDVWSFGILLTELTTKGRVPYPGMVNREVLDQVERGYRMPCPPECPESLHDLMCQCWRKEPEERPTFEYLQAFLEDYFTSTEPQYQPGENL

Compound | IC50 [1] | IC50 [2] | IC50 [3]
CC(=O)Nc1cccc(Nc2ncc3ccn(S(=O)(=O)c4ccc(C)cc4)c3n2)c1 [Example 39] | > 1000 nM | – | –
CC(=O)Nc1cccc(Nc2ncc3ccn(S(=O)(=O)c4cccc(OC(F)(F)F)c4)c3n2)c1 [Example 40] | > 1000 nM | – | –
O=C1CCc2cc(Nc3cc4c(ccn4S(=O)(=O)c4cccc(OC(F)(F)F)c4)cn3)ccc2N1 [Example 56] | > 1000 nM | – | –
CC(=O)Nc1ccc(Nc2cc3c(ccn3Cc3ccccc3OC(F)F)cn2)cc1 [Example 97] | > 1000 nM | – | –
CC(=O)Nc1cccc(Nc2cc3c(ccn3Cc3ccccc3OC(F)F)cn2)c1 [Example 98] | > 1000 nM | – | –
COc1ccccc1S(=O)(=O)n1ccc2cnc(Nc3cccc(NC(C)=O)c3)nc21 [Example 104] | > 1000 nM | – | –
CC(C)(O)C(=O)Nc1cccc(Nc2ncc3ccn(S(=O)(=O)c4ccccc4OC(F)(F)F)c3n2)c1 [Example 110] | > 1000 nM | – | –
O=S(=O)(c1ccccc1OC(F)(F)F)n1ccc2cnc(Nc3ccc(N4CCOCC4)cc3)nc21 [Example 112] | > 1000 nM | – | –
COc1ccccc1S(=O)(=O)n1ncc2cnc(Nc3ccc4c(c3)CCC(=O)N4)cc21 [Example 130] | > 1000 nM | – | –
COc1ccccc1S(=O)(=O)n1ncc2cnc(Nc3ccc4ncsc4c3)cc21 [Example 132] | > 1000 nM | – | –
CN(c1ncccc1Cn1ccc2cnc(Nc3ccncc3)nc21)S(C)(=O)=O [Example 138] | > 1000 nM | – | –
CN(c1cccc(Cn2ccc3cnc(Nc4ccc5c(c4)CCC(=O)N5)nc32)n1)S(C)(=O)=O [Example 141] | > 1000 nM | – | –
COc1ccccc1S(=O)(=O)n1ccc2cnc(Nc3cccnc3)nc21 [Example 143] | > 1000 nM | – | –
COc1ccccc1S(=O)(=O)n1ccc2cnc(Nc3ccncc3)nc21 [Example 144] | > 1000 nM | – | –
Cc1ccccc1Nc1ncc2ccn(Cc3cccnc3N(C)S(C)(=O)=O)c2n1 [Example 148] | > 1000 nM | – | –
CN(c1ncccc1Cn1ccc2cnc(Nc3ccccc3F)nc21)S(C)(=O)=O [Example 155] | > 1000 nM | – | –
CN(c1ncccc1Cn1ccc2cnc(Nc3c(F)cccc3F)nc21)S(C)(=O)=O [Example 167] | > 1000 nM | – | –
CN(c1ncccc1Cn1ccc2cnc(Nc3cccc(-c4nnn[nH]4)c3)nc21)S(C)(=O)=O [Example 188] | > 1000 nM | – | –
CC(=O)Nc1ccc(S(=O)(=O)n2ccc3cnc(Nc4ccc5c(c4)CCC(=O)N5)nc32)cc1 [Example 192] | > 1000 nM | – | –
O=C1CCc2cc(Nc3ncc4ccn(S(=O)(=O)c5ccc6ncsc6c5)c4n3)ccc2N1 [Example 226] | > 1000 nM | – | –
O=S(=O)(c1ccc2ncsc2c1)n1ccc2cnc(Nc3ccc(N4CCNCC4)cc3)nc21 [Example 234] | > 1000 nM | – | –
CN(c1ncccc1Cn1ncc2cnc(Nc3ccc(N4CCNCC4)cc3)nc21)S(C)(=O)=O [Example 241] | < 20 nM | – | –
O=C1Cc2cc(Nc3cc4c(cn3)cnn4S(=O)(=O)c3cccc4cccnc34)ccc2N1 [Example 354] | > 1000 nM | – | –
CN1CC2CC1CN2c1ccc(Nc2ncc3ccn(S(=O)(=O)c4cccc5cccnc45)c3n2)cc1 (stereo not shown) [Example 410] | – | < 20 nM | < 20 nM
N#Cc1ccccc1S(=O)(=O)n1ccc2cnc(Nc3ccc(N4CCN(CCO)CC4)cc3)cc21 [Example 413] | – | < 20 nM | < 20 nM
CN(c1ccccc1Cn1ccc2cnc(Nc3ccc(N4CCN(CCO)CC4)cc3)nc21)S(C)(=O)=O [Example 423] | – | < 20 nM | < 20 nM
COc1cc(Nc2ncc3ccn(S(=O)(=O)c4cccc5cccnc45)c3n2)ccc1N1CCN(C)CC1 [Example 427] | – | < 20 nM | < 20 nM

The next lines start with the values.

IC50 [1] | IC50 [2] | IC50 [3] | Compound
– | < 20 nM | < 20 nM | CN1CCN(c2ccc(Nc3ncc4ccn(Cc5ccccc5N(C)S(C)(=O)=O)c4n3)cc2)CC1 [Example 428]
– | < 20 nM | < 20 nM | COc1cc(Nc2ncc3ccn(S(=O)(=O)c4cccc5cccnc45)c3n2)ccc1N1CCN(CCO)CC1 [Example 431]
– | < 20 nM | < 20 nM | O=S(=O)(c1cccc2cccnc12)n1ccc2cnc(Nc3ccc(N4CCC(CO)CC4)cc3)nc21 [Example 440]
– | < 20 nM | < 20 nM | CN(C)C1CCN(c2ccc(Nc3ncc4ccn(S(=O)(=O)c5cccc6cccnc56)c4n3)cc2)CC1 [Example 462]
– | < 20 nM | < 20 nM | C[C@H]1CN(c2ccc(Nc3cc4c(ccn4S(=O)(=O)c4ccccc4C#N)cn3)cc2)CCN1 [Example 472]
– | < 20 nM | < 20 nM | C[C@H]1CNCCN1c1ccc(Nc2cc3c(ccn3S(=O)(=O)c3cccc4cccnc34)cn2)cc1 [Example 478]
– | < 20 nM | < 20 nM | C[C@@H]1CNCCN1c1ccc(Nc2cc3c(ccn3S(=O)(=O)c3cccc4cccnc34)cn2)cc1 [Example 480]
– | < 20 nM | < 20 nM | CN(C)C1CCN(c2ccc(Nc3cc4c(ccn4S(=O)(=O)c4ccccc4C#N)cn3)cc2)CC1 [Example 485]
– | < 20 nM | < 20 nM | C[C@@H]1CNCCN1c1ccc(Nc2ncc3ccn(S(=O)(=O)c4cccc5cccnc45)c3n2)cc1 [Example 490]
– | < 20 nM | < 20 nM | CC1(C)CN(S(=O)(=O)c2cccc3cccnc23)c2nc(Nc3ccc4c(c3)CCC(=O)N4)ncc21 [Example 545]
– | < 20 nM | < 20 nM | CS(=O)(=O)Nc1ccccc1Cn1ccc2cnc(Nc3ccc4c(c3)CCC(=O)N4)nc21 [Example 595]
– | < 20 nM | < 20 nM | CN(c1ccccc1Cn1ccc2cnc(Nc3ccc(N4CCNC(C)(C)C4)cc3)nc21)S(C)(=O)=O [Example 606]
– | < 20 nM | < 20 nM | CS(=O)(=O)Nc1ccccc1Cn1ccc2cnc(Nc3ccc4c(c3)OCC(=O)N4)nc21 [Example 618]
– | < 20 nM | < 20 nM | C[C@H](O)CN1CCN(c2ccc(Nc3ncc4ccn(Cc5ccccc5N(C)S(C)(=O)=O)c4n3)cc2)CC1 [Example 632]
– | < 20 nM | < 20 nM | CN(c1ccccc1Cn1ccc2cnc(Nc3ccc(N4CCN(CC(=O)O)CC4)cc3)nc21)S(C)(=O)=O [Example 662]
– | < 20 nM | < 20 nM | C[C@@H](O)CN1CCN(c2ccc(Nc3ncc4ccn(Cc5ccccc5N(C)S(C)(=O)=O)c4n3)cc2)CC1 [Example 665]
– | < 20 nM | < 20 nM | COc1ccc(N(C)S(C)(=O)=O)c(Cn2ccc3cnc(Nc4ccc(N5CCN[C@@H](C)C5)cc4)nc32)c1 [Example 675]
– | < 20 nM | < 20 nM | COc1ccc(N(C)S(C)(=O)=O)c(Cn2ccc3cnc(Nc4ccc5c(c4)CC(=O)N5)nc32)c1 [Example 691]
– | < 20 nM | < 20 nM | C[C@H](O)CN1CCN(c2ccc(Nc3ncc4ccn(Cc5ccccc5N(C)S(C)(=O)=O)c4n3)cc2)C[C@@H]1C [Example 695, N-(2-((2-((4-((S)-4-((S)-2-hydroxypropyl)-3-methylpiperazin-1-yl)phenyl)amino)-7H-pyrrolo[2,3-d]pyrimidin-7-yl)methyl)phenyl)-N-methylmethanesulfonamide]
– | < 20 nM | < 20 nM | CN1CCC(NC(=O)c2ccc(Nc3ncc4ccn(Cc5ccccc5N(C)S(C)(=O)=O)c4n3)cc2)CC1 [Example 777]
– | < 20 nM | < 20 nM | Cc1ccc(N(C)S(C)(=O)=O)c(Cn2ccc3cnc(Nc4ccc(N5CCC(N(C)C)CC5)c(C)c4)nc32)c1 [Example 780]
